Laboratory results taken from the supplement of paper PMC10307832.

Tests used:
Test in all cases: relative viability (nuclei count vs DMSO), 5 days (fraction); higher = more cells survive
Trametinib + Crizotinib = compound: CC(=O)Nc1cccc(-n2c(=O)n(C3CC3)c(=O)c3c(Nc4ccc(I)cc4F)n(C)c(=O)c(C)c32)c1 [Trametinib] + C[C@@H](Oc1cc(-c2cnn(C3CCNCC3)c2)cnc1N)c1c(Cl)ccc(F)c1Cl [Crizotinib] (partner 1 µM)
In short: (§1)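 A single step with final 0.05% Triton X-100, 1% formaldehyde and 1 ug/ml Hoechst fixed the cells and stained nuclei 5 days after treatment. Lung cancer cell lines in 1536-well plates had been treated by pin tool the day after seeding with one drug alone or a fixed anchor-drug dose plus five library-drug doses (not always all listed) in √10 steps, and nuclei were counted on 4× images. Relative viability is the ratio of nuclei in treated wells to nuclei in vehicle wells, taken as the median of duplicate plates.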

[1] = compound: CN1C=C(C2=CC=CC=C21)/C=C\3/C4=C(C=CC=N4)NC3=O + COc1cccc2cc(-c3nc([C@H]4CC[C@H](C(=O)O)CC4)n4ncnc(N)c34)[nH]c12 [OSI-027] (partner 0.5 µM)
In short: as §1

[2] = compound: CN1C=C(C2=CC=CC=C21)/C=C\3/C4=C(C=CC=N4)NC3=O + C[C@@H](Oc1cc(-c2cnn(C3CCNCC3)c2)cnc1N)c1c(Cl)ccc(F)c1Cl [Crizotinib] (partner 1 µM)
In short: as §1

[3] = compound: CN1C=C(C2=CC=CC=C21)/C=C\3/C4=C(C=CC=N4)NC3=O + Cc1cc(Nc2cc(N3CCN(C)CC3)nc(Sc3ccc(NC(=O)C4CC4)cc3)n2)n[nH]1 [Tozasertib] (partner 0.1 µM)
In short: as §1

UMC-11
relative viability (Trametinib + Crizotinib; first compound 0.0025 µM): 0.634
relative viability (Trametinib + Crizotinib; first compound 0.007906 µM): 0.591
relative viability (Trametinib + Crizotinib; first compound 0.025 µM): 0.679
relative viability (Trametinib + Crizotinib; first compound 0.07906 µM): 0.647
relative viability (Trametinib + Crizotinib; first compound 0.25 µM): 0.566
relative viability ([1]; first compound 0.02 µM): 0.513
relative viability ([1]; first compound 0.06325 µM): 0.49
relative viability ([1]; first compound 0.2 µM): 0.461
relative viability ([1]; first compound 0.6325 µM): 0.536
relative viability ([1]; first compound 2 µM): 0.494
relative viability ([2]; first compound 0.02 µM): 0.448
relative viability ([2]; first compound 0.06325 µM): 0.543
relative viability ([2]; first compound 0.2 µM): 0.578
relative viability ([2]; first compound 0.6325 µM): 0.855
relative viability ([2]; first compound 2 µM): 0.786
relative viability ([3]; first compound 0.02 µM): 0.206
relative viability ([3]; first compound 0.06325 µM): 0.198
relative viability ([3]; first compound 0.2 µM): 0.177
relative viability ([3]; first compound 0.6325 µM): 0.191
relative viability ([3]; first compound 2 µM): 0.227
